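96-well plates; 48 h exposure; 5 concentrations. Endpoints by linear interpolation between flanking doses. Not reached: highest tested concentration assigned. The concentration for 50% growth inhibition is given as GI50. The concentration for full growth arrest is given as TGI.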
Legend:
Assay in all cases: inhibition of tumour cell growth, NCI panel, 48 h
HOP-62 NSCLC = system: HOP-62 NSCLC
MALME-3M melanoma = system: MALME-3M melanoma
OVCAR-3 ovarian = system: OVCAR-3 ovarian
SK-MEL-5 melanoma = system: SK-MEL-5 melanoma
SR leukemia = system: SR leukemia
HL-60(TB) leukemia = system: HL-60(TB) leukemia
786-0 renal = system: 786-0 renal
HCT-15 colon = system: HCT-15 colon
HS 578T breast = system: HS 578T breast
SF-539 CNS = system: SF-539 CNS
NCI-H226 lung = system: NCI-H226 lung
HCT-116 colon = system: HCT-116 colon
HOP-92 NSCLC = system: HOP-92 NSCLC
ACHN renal = system: ACHN renal
NCI-H23 lung = system: NCI-H23 lung
OVCAR-8 ovarian = system: OVCAR-8 ovarian
U251 CNS = system: U251 CNS
CAKI-1 renal = system: CAKI-1 renal
A549 NSCLC = system: A549 NSCLC
K-562 leukemia = system: K-562 leukemia
EKVX NSCLC = system: EKVX NSCLC
M14 melanoma = system: M14 melanoma
A498 renal = system: A498 renal
RPMI-8226 leukemia = system: RPMI-8226 leukemia
NCI-H460 lung = system: NCI-H460 lung
COLO 205 colon = system: COLO 205 colon
UACC-257 melanoma = system: UACC-257 melanoma
NCI-H522 lung = system: NCI-H522 lung
DU-145 prostate = system: DU-145 prostate
MDA-MB-435 = system: MDA-MB-435
MDA-MB-231 breast = system: MDA-MB-231 breast
HCC-2998 colon = system: HCC-2998 colon
OVCAR-5 ovarian = system: OVCAR-5 ovarian
SN12C renal = system: SN12C renal
SF-268 CNS = system: SF-268 CNS
SF-295 CNS = system: SF-295 CNS
BT-549 breast = system: BT-549 breast
SK-MEL-28 melanoma = system: SK-MEL-28 melanoma
HT29 colon = system: HT29 colon
UACC-62 melanoma = system: UACC-62 melanoma
CCRF-CEM leukemia = system: CCRF-CEM leukemia
UO-31 renal = system: UO-31 renal
RXF 393 renal = system: RXF 393 renal
SK-OV-3 ovarian = system: SK-OV-3 ovarian
IGROV1 ovarian = system: IGROV1 ovarian
MCF7 breast = system: MCF7 breast
LOX IMVI melanoma = system: LOX IMVI melanoma
NCI/ADR-RES ovarian = system: NCI/ADR-RES ovarian
PC-3 prostate = system: PC-3 prostate
SNB-75 CNS = system: SNB-75 CNS
SNB-19 CNS = system: SNB-19 CNS
KM12 colon = system: KM12 colon
MOLT-4 leukemia = system: MOLT-4 leukemia
SK-MEL-2 melanoma = system: SK-MEL-2 melanoma
SW-620 colon = system: SW-620 colon
OVCAR-4 ovarian = system: OVCAR-4 ovarian
T-47D breast = system: T-47D breast
TK-10 renal = system: TK-10 renal

`C=CCSSC1N=CNc2nc[nH]c21` (stereo unspecified) showed a GI50 (HOP-62 NSCLC) of 1.54 µM, a TGI (HOP-62 NSCLC) of over 70.4 µM and a GI50 (MALME-3M melanoma) of 3.61 µM. The TGI (MALME-3M melanoma) was over 42.2 µM, the GI50 (OVCAR-3 ovarian) was 0.944 µM and the TGI (OVCAR-3 ovarian) was 14.2 µM. For the same compound, the GI50 (SK-MEL-5 melanoma) was 5.31 µM, the TGI (SK-MEL-5 melanoma) was 39.5 µM and the GI50 (SR leukemia) was 1.28 µM. The TGI (SR leukemia) was over 100 µM, the GI50 (HL-60(TB) leukemia) was 2.4 µM and the TGI (HL-60(TB) leukemia) was over 26.2 µM. The GI50 (786-0 renal) was 1.75 µM, the TGI (786-0 renal) was over 36.3 µM and the GI50 (HCT-15 colon) was 4.71 µM. For the same compound, the TGI (HCT-15 colon) was 24.5 µM, the GI50 (HS 578T breast) was 12.8 µM and the TGI (HS 578T breast) was over 100 µM. It also gave a GI50 (SF-539 CNS) of 2.6 µM, a TGI (SF-539 CNS) of 32.4 µM and a GI50 (NCI-H226 lung) of 12.2 µM. For the same compound, the TGI (NCI-H226 lung) was over 100 µM, the GI50 (HCT-116 colon) was 2.77 µM and the TGI (HCT-116 colon) was 15.8 µM. The GI50 (HOP-92 NSCLC) was 0.376 µM, the TGI (HOP-92 NSCLC) was 17 µM and the GI50 (ACHN renal) was 5.62 µM. It also gave a TGI (ACHN renal) of over 46.3 µM, a GI50 (NCI-H23 lung) of 8.09 µM and a TGI (NCI-H23 lung) of 42.8 µM. For the same compound, the GI50 (OVCAR-8 ovarian) was 4 µM, the TGI (OVCAR-8 ovarian) was 23.3 µM and the GI50 (U251 CNS) was 15.9 µM. The TGI (U251 CNS) was over 54.4 µM, the GI50 (CAKI-1 renal) was 1.97 µM and the TGI (CAKI-1 renal) was 34.5 µM. The GI50 (A549 NSCLC) was 30.5 µM, the TGI (A549 NSCLC) was over 100 µM and the GI50 (K-562 leukemia) was 0.343 µM. It also gave a TGI (K-562 leukemia) of over 26 µM, a GI50 (EKVX NSCLC) of 49.4 µM and a TGI (EKVX NSCLC) of over 100 µM. For the same compound, the GI50 (M14 melanoma) was 0.461 µM, the TGI (M14 melanoma) was 18.6 µM and the GI50 (A498 renal) was 67.2 µM. The TGI (A498 renal) was over 100 µM, the GI50 (RPMI-8226 leukemia) was 1.44 µM and the TGI (RPMI-8226 leukemia) was 6.26 µM. It also gave a GI50 (NCI-H460 lung) of 8.16 µM, a TGI (NCI-H460 lung) of over 100 µM and a GI50 (COLO 205 colon) of 3.52 µM. It also gave a TGI (COLO 205 colon) of 14.7 µM, a GI50 (UACC-257 melanoma) of 5.34 µM and a TGI (UACC-257 melanoma) of 16.8 µM. The GI50 (NCI-H522 lung) was 4.34 µM, the TGI (NCI-H522 lung) was 48.3 µM and the GI50 (DU-145 prostate) was 0.837 µM. It also gave a TGI (DU-145 prostate) of over 47.5 µM, a GI50 (MDA-MB-435) of 2.15 µM and a TGI (MDA-MB-435) of 39.9 µM. For the same compound, the GI50 (MDA-MB-231 breast) was 4.84 µM, the TGI (MDA-MB-231 breast) was 36.2 µM and the GI50 (HCC-2998 colon) was 2.82 µM. For the same compound, the TGI (HCC-2998 colon) was 23.8 µM, the GI50 (OVCAR-5 ovarian) was 7.53 µM and the TGI (OVCAR-5 ovarian) was over 50.6 µM. The GI50 (SN12C renal) was 10.4 µM, the TGI (SN12C renal) was over 67.4 µM and the GI50 (SF-268 CNS) was 5.66 µM. It also gave a TGI (SF-268 CNS) of over 46.9 µM, a GI50 (SF-295 CNS) of 2.61 µM and a TGI (SF-295 CNS) of over 100 µM. The GI50 (BT-549 breast) was 8.78 µM, the TGI (BT-549 breast) was over 76.4 µM and the GI50 (SK-MEL-28 melanoma) was 27.2 µM. The TGI (SK-MEL-28 melanoma) was over 70.2 µM, the GI50 (HT29 colon) was 5.88 µM and the TGI (HT29 colon) was 36.5 µM. For the same compound, the GI50 (UACC-62 melanoma) was 1.75 µM, the TGI (UACC-62 melanoma) was over 57.7 µM and the GI50 (CCRF-CEM leukemia) was 0.871 µM. The TGI (CCRF-CEM leukemia) was over 28.1 µM, the GI50 (UO-31 renal) was 2.72 µM and the TGI (UO-31 renal) was 13 µM. For the same compound, the GI50 (RXF 393 renal) was 4.73 µM, the TGI (RXF 393 renal) was 21.5 µM and the GI50 (SK-OV-3 ovarian) was 0.562 µM. The TGI (SK-OV-3 ovarian) was over 88.6 µM, the GI50 (IGROV1 ovarian) was 2.12 µM and the TGI (IGROV1 ovarian) was 11.2 µM. It also gave a GI50 (MCF7 breast) of 1.02 µM, a TGI (MCF7 breast) of 16.1 µM and a GI50 (LOX IMVI melanoma) of 0.374 µM. The TGI (LOX IMVI melanoma) was 14.6 µM, the GI50 (NCI/ADR-RES ovarian) was 4.46 µM and the TGI (NCI/ADR-RES ovarian) was over 80.6 µM. For the same compound, the GI50 (PC-3 prostate) was 5.56 µM, the TGI (PC-3 prostate) was 28.7 µM and the GI50 (SNB-75 CNS) was 3.18 µM. For the same compound, the TGI (SNB-75 CNS) was over 90.9 µM, the GI50 (SNB-19 CNS) was over 71.6 µM and the TGI (SNB-19 CNS) was over 100 µM. It also gave a GI50 (KM12 colon) of 4.42 µM, a TGI (KM12 colon) of over 43.6 µM and a GI50 (MOLT-4 leukemia) of 2.15 µM. For the same compound, the TGI (MOLT-4 leukemia) was over 24.1 µM, the GI50 (SK-MEL-2 melanoma) was 6.11 µM and the TGI (SK-MEL-2 melanoma) was 19.2 µM. The GI50 (SW-620 colon) was 3.71 µM, the TGI (SW-620 colon) was 14.9 µM and the GI50 (OVCAR-4 ovarian) was 0.446 µM. It also gave a TGI (OVCAR-4 ovarian) of 5.43 µM, a GI50 (T-47D breast) of 1.39 µM and a TGI (T-47D breast) of 26.5 µM. The GI50 (TK-10 renal) was 0.708 µM and the TGI (TK-10 renal) was 23.8 µM.

Reference: PubChem BioAssay (NCI)
